Entries after “also recorded” stand apart in the source; their conditions may differ. Blank lines part the entries; values can stand above or below the compound they belong to.
Experiments:
[1] = biological target: human GIPR-Renilla luciferase-Gαs long fusion protein (type RLG) (human); experiment: cell-based or functional assay
chimeric GIPR = biological target: T1, chimeric GIPR (Homo sapiens, UniProt P48546); experiment: BRET assay, specificity of the response of the chimeric GIPR (stable cell line, FP-Gγ9); format: cell-based; settings: increasing concentrations of ligand
T1 construct: ID; NOs; expressed in transfected cells
T1 sequence (P48546 with tags, fused parts or gaps): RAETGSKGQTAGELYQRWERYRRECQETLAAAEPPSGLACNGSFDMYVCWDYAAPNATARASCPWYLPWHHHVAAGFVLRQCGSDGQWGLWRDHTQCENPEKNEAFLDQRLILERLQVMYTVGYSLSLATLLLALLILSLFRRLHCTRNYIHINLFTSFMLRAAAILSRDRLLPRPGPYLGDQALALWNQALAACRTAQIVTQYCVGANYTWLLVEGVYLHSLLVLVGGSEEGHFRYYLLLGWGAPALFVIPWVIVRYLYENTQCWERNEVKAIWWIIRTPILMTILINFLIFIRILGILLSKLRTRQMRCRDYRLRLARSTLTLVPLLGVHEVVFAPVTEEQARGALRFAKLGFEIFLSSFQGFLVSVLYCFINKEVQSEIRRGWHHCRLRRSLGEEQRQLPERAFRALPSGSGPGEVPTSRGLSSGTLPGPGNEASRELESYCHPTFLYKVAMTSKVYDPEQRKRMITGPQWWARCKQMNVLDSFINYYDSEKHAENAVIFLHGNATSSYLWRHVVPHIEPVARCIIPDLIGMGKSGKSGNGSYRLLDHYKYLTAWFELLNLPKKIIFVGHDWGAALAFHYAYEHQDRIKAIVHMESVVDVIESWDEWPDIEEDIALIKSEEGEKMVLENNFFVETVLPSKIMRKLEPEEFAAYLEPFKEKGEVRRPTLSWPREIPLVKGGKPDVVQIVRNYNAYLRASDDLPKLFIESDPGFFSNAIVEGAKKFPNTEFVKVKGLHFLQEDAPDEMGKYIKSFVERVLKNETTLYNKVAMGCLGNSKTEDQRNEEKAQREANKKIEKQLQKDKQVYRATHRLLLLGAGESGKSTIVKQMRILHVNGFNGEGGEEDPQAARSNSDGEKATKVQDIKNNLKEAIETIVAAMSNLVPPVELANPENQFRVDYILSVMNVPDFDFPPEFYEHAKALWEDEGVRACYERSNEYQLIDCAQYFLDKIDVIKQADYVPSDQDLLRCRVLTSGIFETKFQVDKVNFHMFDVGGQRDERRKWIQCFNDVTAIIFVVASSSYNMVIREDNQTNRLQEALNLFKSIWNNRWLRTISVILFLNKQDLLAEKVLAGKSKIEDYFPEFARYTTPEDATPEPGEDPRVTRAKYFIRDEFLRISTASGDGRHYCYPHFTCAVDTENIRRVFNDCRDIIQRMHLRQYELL
Description: 5 or 10 minutes after the addition of coelenterazine H to the cells, the read plate is placed in the FLIPR tetra and the measurement begins.
Finally, a three-addition protocol can also be run on the FLIPR tetra, containing three compound plates, of which the first one usually contains different candidate agents, the second one an agonist at its EC20 and the third one an agonist at its EC80, so that a screen for both positive and negative allosteric modulators can be run at the same time.
The camera is adjusted in such a way that the gain is set to a maximum of 28,000× and the shutters are opened 100%. The signal captured is regulated by adjusting the exposure time to 0.1 to 3 seconds ideally resulting of a signal between 30,000-60,000 RLU. The read interval (emission filter 1, emission filter 2) is adjusted to the minimal value that results from the addition of the two exposure times (=2×0.1 to 3 seconds) plus the time needed to move the filters from position 1 to position 2 (0.3 sec), resulting in a maximal read frequency of 0.5 seconds (2 Hz).
Data on FIG. 6 were obtained by applying a two-addition protocol as described above with respect to FIG. 4, with the main differences being the final concentration of coelenterazine H of 6 μM, the exposure time in both channels of 1.5 seconds and the read interval of 3.3 seconds, as well as the presence of 0.2% BSA in the HBSS++ buffer for diluting peptidic ligands. […] The effects of the ligands were read for another 180 reads. Area under curve of blue/yellow ratio from count 31 to the end of the measurement was taken for the analysis and plotted against ligand concentration for the construction of the graph in FIG. 6.

chimeric M4R (RGLG-2) = biological target: T2, chimeric M4R (RGLG-2) (Homo sapiens, UniProt P08173); experiment: BRET assay of the invention, cells co-expressing chimeric M4R (RGLG-2) and FP-Gγ9; format: cell-based; settings: for activation of the chimeric M4R (BRET): increasing concentrations of ligand; for Invention assay % stim / Invention assay % enh / Invention assay % inh: activity @ 30uM or 30 ug/ml, normalized to maximal effect of the orthosteric agonist; for Invention assay % stim: compound tested alone; for Invention assay % enh: in presence of EC20 value of Ach; for Invention assay % inh: in presence of EC80 of Ach
T2 construct: ID; NOs; expressed in transfected cells
T2 sequence (P08173 with tags, fused parts or gaps): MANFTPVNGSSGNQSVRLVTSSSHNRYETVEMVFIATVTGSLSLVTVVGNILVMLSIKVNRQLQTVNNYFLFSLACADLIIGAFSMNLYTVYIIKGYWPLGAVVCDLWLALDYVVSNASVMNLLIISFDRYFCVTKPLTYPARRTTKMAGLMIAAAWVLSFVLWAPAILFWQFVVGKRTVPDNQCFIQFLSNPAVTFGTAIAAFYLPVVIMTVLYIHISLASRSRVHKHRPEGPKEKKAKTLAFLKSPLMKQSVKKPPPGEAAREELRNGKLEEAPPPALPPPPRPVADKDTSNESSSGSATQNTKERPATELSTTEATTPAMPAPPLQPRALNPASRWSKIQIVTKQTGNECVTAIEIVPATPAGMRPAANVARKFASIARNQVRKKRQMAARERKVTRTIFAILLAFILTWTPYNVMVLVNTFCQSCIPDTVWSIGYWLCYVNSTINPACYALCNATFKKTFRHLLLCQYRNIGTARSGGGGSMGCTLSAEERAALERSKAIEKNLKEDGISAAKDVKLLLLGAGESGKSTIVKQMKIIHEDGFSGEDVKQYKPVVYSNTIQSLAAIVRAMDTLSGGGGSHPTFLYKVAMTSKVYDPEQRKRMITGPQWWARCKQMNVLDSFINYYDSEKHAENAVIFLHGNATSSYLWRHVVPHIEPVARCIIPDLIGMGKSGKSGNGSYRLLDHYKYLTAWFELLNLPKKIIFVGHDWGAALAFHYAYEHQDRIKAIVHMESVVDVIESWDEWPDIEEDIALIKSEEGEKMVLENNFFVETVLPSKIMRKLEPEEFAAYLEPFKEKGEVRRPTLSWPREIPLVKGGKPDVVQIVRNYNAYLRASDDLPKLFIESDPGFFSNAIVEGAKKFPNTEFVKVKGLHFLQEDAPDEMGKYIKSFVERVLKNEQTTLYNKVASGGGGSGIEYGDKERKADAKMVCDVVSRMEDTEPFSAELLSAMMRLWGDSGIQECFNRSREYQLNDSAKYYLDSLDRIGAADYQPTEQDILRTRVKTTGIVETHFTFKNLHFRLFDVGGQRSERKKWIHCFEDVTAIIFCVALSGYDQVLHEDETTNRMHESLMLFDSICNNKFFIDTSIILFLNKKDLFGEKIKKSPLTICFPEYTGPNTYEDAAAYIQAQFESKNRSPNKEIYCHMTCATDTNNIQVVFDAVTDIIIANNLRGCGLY
Description: The same cells as described for FIG. 10 A were used. […] The decrease of the signal below baseline in the PTX-treated condition confirms a constitutive activity that has been described for the M4R. […]
A typical experiment has the following sequence.
(§1) The assay of the present invention was compared with a state of the art calcium based assay. […] In calcium-based assay, a calcium flux is measured in cells co-expressing recombinant M4R and modified Gαq. In the assay in accordance with the present invention, BRET in measured in cells co-expressing a chimeric M4R according to RGLG-2 (construct and cell-line from FIG. 2C, Table 6) and FP-Gγ9 (as described in FIG. 10A). The data represent mean values and they are normalized to the maximal effect of the orthosteric agonist after the subtraction of the basal values.

[2] = system: receptors endogenously expressed in non-transfected HEK cells; experiment: cAMP accumulation in non-transfected HEK cells; format: cell-based, human; settings: increasing concentrations of ligand
From the text: These ligands are the following: NECA (empty inverted triangles), Corticotropin releasing factor (CRF) (empty diamonds), calcitonin (full circles), isoproterenol (full triangles), UTP (full inverted triangles) and carbachol (full squares). […]

M4R = biological target: T3, M4R (Homo sapiens, UniProt P08173); experiment: Calcium-based assay, calcium flux in cells co-expressing recombinant M4R and modified Gαq; format: cell-based; settings: activity @ 30uM or 30 ug/ml, normalized to maximal effect of the orthosteric agonist; for Calcium-based assay % stim: compound tested alone; for Calcium-based assay % enh: in presence of EC20 value of Ach; for Calcium-based assay % inh: in presence of EC80 of Ach
T3 construct: expressed in transfected cells
T3 sequence (P08173 1-479): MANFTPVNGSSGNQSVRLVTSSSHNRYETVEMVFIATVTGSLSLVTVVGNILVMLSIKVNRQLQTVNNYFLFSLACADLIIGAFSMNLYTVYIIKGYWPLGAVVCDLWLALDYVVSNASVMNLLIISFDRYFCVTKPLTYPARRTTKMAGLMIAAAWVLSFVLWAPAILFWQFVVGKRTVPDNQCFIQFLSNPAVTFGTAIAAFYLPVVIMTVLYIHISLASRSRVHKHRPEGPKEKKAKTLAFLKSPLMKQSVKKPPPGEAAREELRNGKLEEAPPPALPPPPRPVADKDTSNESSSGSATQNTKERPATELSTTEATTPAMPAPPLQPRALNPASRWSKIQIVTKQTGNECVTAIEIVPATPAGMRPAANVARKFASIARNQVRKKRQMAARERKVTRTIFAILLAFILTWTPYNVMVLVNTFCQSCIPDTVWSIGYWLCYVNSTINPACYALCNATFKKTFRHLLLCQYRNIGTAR
Description: as §1

[3] = biological target: human GLP-1R-Renilla luciferase-Gαs long fusion protein (type RLG) (human); experiment: cell-based or functional assay
Chain of human GLP-1R-Renilla luciferase-Gαs long fusion protein (type RLG) (human) (chain, as listed by the source limits assumed): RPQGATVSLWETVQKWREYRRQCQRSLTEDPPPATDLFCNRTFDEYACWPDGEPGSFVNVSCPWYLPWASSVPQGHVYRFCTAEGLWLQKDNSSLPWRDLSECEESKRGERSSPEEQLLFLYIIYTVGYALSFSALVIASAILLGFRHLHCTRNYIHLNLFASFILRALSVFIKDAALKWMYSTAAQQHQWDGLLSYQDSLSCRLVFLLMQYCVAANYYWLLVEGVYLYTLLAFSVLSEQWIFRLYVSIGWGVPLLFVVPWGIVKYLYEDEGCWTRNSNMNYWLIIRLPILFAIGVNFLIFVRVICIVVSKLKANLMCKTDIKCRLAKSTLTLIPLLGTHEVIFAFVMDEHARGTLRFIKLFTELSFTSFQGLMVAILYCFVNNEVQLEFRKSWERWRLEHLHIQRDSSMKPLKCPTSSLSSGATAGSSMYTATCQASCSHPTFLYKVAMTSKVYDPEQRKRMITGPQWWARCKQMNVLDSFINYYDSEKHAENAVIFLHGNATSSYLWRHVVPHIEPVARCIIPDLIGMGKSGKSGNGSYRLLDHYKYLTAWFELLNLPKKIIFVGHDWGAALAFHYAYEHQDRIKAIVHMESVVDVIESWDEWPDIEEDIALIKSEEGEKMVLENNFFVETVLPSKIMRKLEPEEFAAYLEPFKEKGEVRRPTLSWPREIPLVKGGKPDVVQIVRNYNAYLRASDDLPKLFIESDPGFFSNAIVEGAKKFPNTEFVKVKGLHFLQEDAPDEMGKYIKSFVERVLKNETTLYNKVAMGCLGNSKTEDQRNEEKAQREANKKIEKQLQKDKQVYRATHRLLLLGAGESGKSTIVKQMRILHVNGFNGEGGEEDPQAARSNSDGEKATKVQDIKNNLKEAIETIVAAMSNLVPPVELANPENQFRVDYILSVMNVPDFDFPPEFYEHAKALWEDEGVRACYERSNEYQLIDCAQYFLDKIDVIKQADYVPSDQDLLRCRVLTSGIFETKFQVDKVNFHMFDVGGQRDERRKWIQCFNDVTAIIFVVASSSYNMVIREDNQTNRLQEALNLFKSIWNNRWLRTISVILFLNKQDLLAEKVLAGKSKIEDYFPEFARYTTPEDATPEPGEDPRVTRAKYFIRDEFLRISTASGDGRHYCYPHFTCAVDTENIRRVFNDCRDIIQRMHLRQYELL

Chain of human GIPR-Renilla luciferase-Gαs long fusion protein (type RLG) (human) (chain, as listed by the source limits assumed): as the sequence (P48546 with tags, fused parts or gaps) above

Invention assay % stim (chimeric M4R (RGLG-2)): −6.8%
Invention assay % enh (chimeric M4R (RGLG-2)): 2.8%
Invention assay % inh (chimeric M4R (RGLG-2)): 13.5%
Calcium-based assay % stim (M4R): 879.7%
Calcium-based assay % enh (M4R): 151.4%
Calcium-based assay % inh (M4R): −23.8%
Compound: O=C1Nc2ccc(I)cc2/C1=C/c1cc(Br)c(O)c(Br)c1 [GW 5074]

Invention assay % stim (chimeric M4R (RGLG-2)): 1.3%
Invention assay % enh (chimeric M4R (RGLG-2)): 8.3%
Invention assay % inh (chimeric M4R (RGLG-2)): 1.5%
Calcium-based assay % stim (M4R): 18.1%
Calcium-based assay % enh (M4R): 62.6%
Calcium-based assay % inh (M4R): −29.2%
Compound: Cn1c2c(c(=O)n(C)c1=O)C(c1cccc(Br)c1)C1=C(N2)c2ccccc2C1=O (stereo not shown) [BPIPP]

Invention assay % stim (chimeric M4R (RGLG-2)): −13.0%
Invention assay % enh (chimeric M4R (RGLG-2)): −0.1%
Invention assay % inh (chimeric M4R (RGLG-2)): 8.6%
Calcium-based assay % stim (M4R): 2.3%
Calcium-based assay % enh (M4R): 3.8%
Calcium-based assay % inh (M4R): 41.6%
Compound: AG 10

Invention assay % stim (chimeric M4R (RGLG-2)): −1.3%
Invention assay % enh (chimeric M4R (RGLG-2)): 3.6%
Invention assay % inh (chimeric M4R (RGLG-2)): 6.6%
Calcium-based assay % stim (M4R): 5.1%
Calcium-based assay % enh (M4R): 19.4%
Calcium-based assay % inh (M4R): 17.1%
Compound: Nc1c[n+](N2CCOCC2)no1.[Cl-] [SIN-1 chloride]

Invention assay % stim (chimeric M4R (RGLG-2)): −8.0%
Invention assay % enh (chimeric M4R (RGLG-2)): 23.9%
Invention assay % inh (chimeric M4R (RGLG-2)): −3.5%
Calcium-based assay % stim (M4R): 13.4%
Calcium-based assay % enh (M4R): 92.3%
Calcium-based assay % inh (M4R): −73.7%
Compound: O=C(N/N=C/c1ccc(O)c(O)c1)c1cc2ccccc2cc1O [Dynamin Inhibitor I]

activation of the chimeric GIPR (BRET) (chimeric GIPR): lack of activation
Compound: O=c1ccn([C@@H]2O[C@H](COP(=O)(O)OP(=O)(O)OP(=O)(O)O)[C@@H](O)[C@H]2O)c(=O)[nH]1 [UTP, uridine-5′-triphosphate]
activation of endogenously expressed receptors, cAMP accumulation [2]: activated; also recorded: increase in cAMP

activation of the chimeric GIPR (BRET) (chimeric GIPR): lack of activation
activation of the chimeric M4R (BRET) (chimeric M4R (RGLG-2)): activation
Compound: C[N+](C)(C)CCOC(N)=O [carbachol]
activation of endogenously expressed receptors, cAMP accumulation [2]: activated; also recorded: increase in cAMP

The next lines start with the compound.

Compound: GIP (from UniProt P09681 52-93) (peptide)
EC50 (GIP), BRET receptor activation; cells co-expressing FP-Gγ9 [1]: 0.3 nM
EC50 (GIP), BRET receptor activation; cells co-expressing FP-Gγ11 [1]: 0.4 nM
EC50 (GIP), BRET receptor activation; cells co-expressing FP-Gγ13 [1]: 0.3 nM
EC50 (GIP), BRET receptor activation; cells co-expressing Gγ5-FP [1]: 5.5 nM
EC50 (GIP), BRET receptor activation; cells co-expressing Gγ9-FP [1]: 1.4 nM
EC50 (GIP), BRET receptor activation; cells co-expressing Gγ10-FP [1]: 8.9 nM
EC50 (GIP), BRET receptor activation; cells co-expressing Gγ11-FP [1]: 1.6 nM
EC50 (GIP), BRET receptor activation; cells co-expressing Gγ13-FP [1]: 0.6 nM

Compound: CCNC(=O)[C@H]1O[C@@H](n2cnc3c(N)ncnc32)[C@H](O)[C@@H]1O [NECA, 5′-N-ethylcarboxamidoadenosine]
activation of the chimeric GIPR (BRET) (chimeric GIPR): lack of activation
activation of the chimeric M4R (BRET) (chimeric M4R (RGLG-2)): lack of activation
activation of endogenously expressed receptors, cAMP accumulation [2]: activated; also recorded: increase in cAMP

Compound: CRF: Corticotropin releasing factor, ligand of a receptor endogenously expressed in HEK cells
activation of the chimeric GIPR (BRET) (chimeric GIPR): lack of activation
activation of the chimeric M4R (BRET) (chimeric M4R (RGLG-2)): lack of activation
activation of endogenously expressed receptors, cAMP accumulation [2]: increase in cAMP
activation of endogenously expressed receptors, cAMP accumulation ([2]; listed as Corticotropin releasing factor): activated

Compound: C[C@H]1CCC/C=C/[C@@H]2C[C@H](O)C[C@H]2[C@H](O)/C=C/C(=O)O1 [Brefeldin A]
Invention assay % stim (chimeric M4R (RGLG-2)): −2.5%
Invention assay % enh (chimeric M4R (RGLG-2)): −1.9%
Invention assay % inh (chimeric M4R (RGLG-2)): 12.7%
Calcium-based assay % stim (M4R): 5.2%
Calcium-based assay % enh (M4R): 32.3%
Calcium-based assay % inh (M4R): −19.5%

Compound: CC(C)NCC(O)c1ccc(O)c(O)c1 (stereo not shown) [isoproterenol]
activation of the chimeric GIPR (BRET) (chimeric GIPR): lack of activation
activation of the chimeric M4R (BRET) (chimeric M4R (RGLG-2)): lack of activation
activation of endogenously expressed receptors, cAMP accumulation [2]: activated; also recorded: increase in cAMP

Compound: calcitonin: ligand of a receptor endogenously expressed in HEK cells
activation of the chimeric GIPR (BRET) (chimeric GIPR): lack of activation
activation of the chimeric M4R (BRET) (chimeric M4R (RGLG-2)): lack of activation
activation of endogenously expressed receptors, cAMP accumulation [2]: activated; also recorded: increase in cAMP

Compound: GLP-1 (from UniProt P01275 21-180) (peptide)
EC50 (GLP-1), BRET receptor activation; cells co-expressing FP-Gγ1 [3]: 1.1 nM
EC50 (GLP-1), BRET receptor activation; cells co-expressing FP-Gγ2 [3]: 0.7 nM
EC50 (GLP-1), BRET receptor activation; cells co-expressing FP-Gγ3 [3]: 0.3 nM
EC50 (GLP-1), BRET receptor activation; cells co-expressing FP-Gγ4 [3]: 1.1 nM
EC50 (GLP-1), BRET receptor activation; cells co-expressing FP-Gγ5 [3]: 0.1 nM
EC50 (GLP-1), BRET receptor activation; cells co-expressing FP-Gγ7 [3]: 0.4 nM
EC50 (GLP-1), BRET receptor activation; cells co-expressing FP-Gγ8 [3]: 1.4 nM
EC50 (GLP-1), BRET receptor activation; cells co-expressing FP-Gγ9 [3]: 0.4 nM
EC50 (GLP-1), BRET receptor activation; cells co-expressing FP-Gγ10 [3]: 0.3 nM
EC50 (GLP-1), BRET receptor activation; cells co-expressing FP-Gγ11 [3]: 0.7 nM
EC50 (GLP-1), BRET receptor activation; cells co-expressing FP-Gγ12 [3]: 0.3 nM
EC50 (GLP-1), BRET receptor activation; cells co-expressing FP-Gγ13 [3]: 0.4 nM
EC50 (GLP-1), BRET receptor activation; cells co-expressing Gγ1-FP [3]: 1.1 nM
EC50 (GLP-1), BRET receptor activation; cells co-expressing Gγ2-FP [3]: 3 nM
EC50 (GLP-1), BRET receptor activation; cells co-expressing Gγ3-FP [3]: 1.5 nM
EC50 (GLP-1), BRET receptor activation; cells co-expressing Gγ4-FP [3]: 4.3 nM
EC50 (GLP-1), BRET receptor activation; cells co-expressing Gγ7-FP [3]: 5.2 nM
EC50 (GLP-1), BRET receptor activation; cells co-expressing Gγ8-FP [3]: 2.3 nM
EC50 (GLP-1), BRET receptor activation; cells co-expressing Gγ9-FP [3]: 1.7 nM
EC50 (GLP-1), BRET receptor activation; cells co-expressing Gγ10-FP [3]: 9.2 nM
EC50 (GLP-1), BRET receptor activation; cells co-expressing Gγ11-FP [3]: 3.1 nM
EC50 (GLP-1), BRET receptor activation; cells co-expressing Gγ12-FP [3]: 3.1 nM
EC50 (GLP-1), BRET receptor activation; cells co-expressing Gγ13-FP [3]: 1 nM

Compound: COC(=O)c1c(C)[nH]c(C)c1C(=O)c1ccccc1Cc1ccccc1 [FPL 64176]
Invention assay % stim (chimeric M4R (RGLG-2)): −8.4%
Invention assay % enh (chimeric M4R (RGLG-2)): 7.5%
Invention assay % inh (chimeric M4R (RGLG-2)): 10.0%
Calcium-based assay % stim (M4R): 48.9%
Calcium-based assay % enh (M4R): 59.7%
Calcium-based assay % inh (M4R): −66.6%

Compound: CCN1C(=O)C=CC1=O [N-Ethylmaleimide]
Invention assay % stim (chimeric M4R (RGLG-2)): −3.4%
Invention assay % enh (chimeric M4R (RGLG-2)): 12.4%
Invention assay % inh (chimeric M4R (RGLG-2)): 16.5%
Calcium-based assay % stim (M4R): 3.8%
Calcium-based assay % enh (M4R): 0.2%
Calcium-based assay % inh (M4R): 96.9%

Compound: CN(C)CCCn1cc(C2=C(c3c[nH]c4ccccc34)C(=O)NC2=O)c2ccccc21 [GF 109203X]
Invention assay % stim (chimeric M4R (RGLG-2)): 2.2%
Invention assay % enh (chimeric M4R (RGLG-2)): 7.4%
Invention assay % inh (chimeric M4R (RGLG-2)): 29.5%
Calcium-based assay % stim (M4R): 154.3%
Calcium-based assay % enh (M4R): 84.3%
Calcium-based assay % inh (M4R): −10.0%

Compound: COC(=O)C1=C(C)NC(C)=C([N+](=O)[O-])[C@@H]1c1ccccc1C(F)(F)F [(R)-(+)-Bay K 8644]
Invention assay % stim (chimeric M4R (RGLG-2)): −8.2%
Invention assay % enh (chimeric M4R (RGLG-2)): 4.7%
Invention assay % inh (chimeric M4R (RGLG-2)): 11.4%
Calcium-based assay % stim (M4R): 26.8%
Calcium-based assay % enh (M4R): 77.8%
Calcium-based assay % inh (M4R): −66.5%

Compound: O=C1OC2(c3ccccc31)c1ccc(O)c(O)c1Oc1c2ccc(O)c1O [Gallein]
Invention assay % stim (chimeric M4R (RGLG-2)): 3.9%
Invention assay % enh (chimeric M4R (RGLG-2)): 5.1%
Invention assay % inh (chimeric M4R (RGLG-2)): 5.3%
Calcium-based assay % stim (M4R): 11.7%
Calcium-based assay % enh (M4R): 42.9%
Calcium-based assay % inh (M4R): −22.2%
